# From ChEMBL document CHEMBL5136987, “Redesigning of the cap conformation and symmetry of the diphenylethyne core to yield highly potent pan-genotypic NS5A inhibitors with high potency and high resistance barrier” (Eur J Med Chem, 2022)
# Active and inactive are the calls of the source. The rule behind the calls is not given here.
# Assays:
# [1] = Selectivity index, ratio of CC50 for cytotoxicity against human Huh-5-2 cells carrying HCV subgenomic replicon assessed as decrease in intracellular ATP level to EC50 for antiviral activity against HCV GT-1b Con1 in human Huh-5-2 cells carrying HCV subgenomic replicon assessed as reduction of viral replication; type: toxicity, cell-based; conditions: read-out: Ratio CC50/EC50
# [2] = Cytotoxicity against human Huh-5-2 cells carrying HCV subgenomic replicon assessed as decrease in intracellular ATP level measured after 72 hrs by Glo-max luminescence based assay; type: toxicity, cell-based
# Hepatitis C virus [3] = experiment: Antiviral activity against HCV GT-1b Con1 in human Huh-5-2 cells carrying HCV subgenomic replicon assessed as reduction of viral replication measured after 72 hrs by Firefly luciferase reporter gene assay; type: functional, organism-based, Hepacivirus hominis; conditions: subtype 1b Con1, Huh-5-2, 72 h
# [4] = Metabolic stability in human S9 fraction assessed as clearance at 10 mg/ml measured upto 120 mins in presence of NADP […] system by LC-MS/MS analysis; type: ADME, subcellular
# Hepatitis C virus [5] = experiment: Antiviral activity against HCV 2a JFH1 in human Huh-7 cells carrying HCV subgenomic replicon assessed as inhibition of viral replication measured after 72 hrs by Firefly luciferase reporter gene assay; type: functional, cell-based; conditions: 2a JFH1, Huh-7, 72 h
# [6] = Metabolic stability in human S9 fraction assessed as half life at 10 mg/ml measured upto 120 mins in presence of NADP […] system by LC-MS/MS analysis; type: ADME, subcellular
# Hepatitis C virus [7] = experiment: Antiviral activity against HCV 3a S52 in human Huh7.5 cells carrying HCV subgenomic replicons assessed as inhibition of viral replication measured after 72 hrs by Firefly luciferase reporter gene assay; type: functional, organism-based, Hepacivirus hominis; conditions: subtype 3a S52, Huh7.5, 72 h
# Hepatitis C virus [8] = experiment: Antiviral activity against HCV 4a ED43 in human Huh7.5 cells carrying HCV subgenomic replicon assessed as inhibition of viral replication measured after 72 hrs by Firefly luciferase reporter gene assay; type: functional, organism-based, Hepacivirus hominis; conditions: subtype 4a ED43, Huh7.5, 72 h
# Hepatitis C virus [9] = experiment: Antiviral activity against HCV GT-1b Con1 infected in human Huh-5-2 cells carrying HCV subgenomic replicon assessed as reduction in NS5A protein level incubated at 3.3 to 30 pM by PI staining based indirect immunofluorescence assay; type: functional, organism-based; conditions: Hepacivirus hominis, subtype 1b Con1, dose 3.3-30 pM
# Hepatitis C virus [10] = experiment: Antiviral activity against HCV GT-1b Con1 in human Huh-5-2 cells carrying HCV subgenomic replicon assessed as drug resistance upto 100X EC50 and measured after 30 passages in presence of G418 by NGS analysis; type: functional, organism-based, Hepacivirus hominis; conditions: subtype 1b Con1, Huh-5-2
# [11] = Selectivity index, ratio of EC50 for antiviral activity against HCV GT-1b Con1 in human Huh-5-2 cells carrying HCV subgenomic replicon assessed as drug resistance measured after 15weeks in presence of G418 by NGS analysis to EC50 for antiviral activity against HCV GT-1b Con1 in human Huh-5-2 cells carrying HCV subgenomic replicon assessed as drug resistance measured after 30 passages in presence of G418; type: functional, Hepatitis C virus subtype 1b
# Hepatitis C virus [12] = experiment: Antiviral activity against HCV GT-1b Con1 in human Huh-5-2 cells carrying HCV subgenomic replicon assessed as drug resistance upto 100X EC50 and measured after 15 weeks in presence of G418 by NGS analysis; type: functional, organism-based, Hepacivirus hominis; conditions: subtype 1b Con1, Huh-5-2
# Hepatitis C virus [13] = experiment: Antiviral activity against HCV GT-1b Con1 infected in human Huh-5-2 cells carrying HCV subgenomic replicon assessed as reduction of viral replication by RT-qPCR analysis; type: functional, organism-based, Hepacivirus hominis; conditions: subtype 1b Con1, Huh-5-2
# Hepatitis C virus [14] = experiment: Antiviral activity against full length HCV GT-1a H77S.3 in human Huh-7-Lunet cells carrying HCV subgenomic replicon assessed as inhibition of viral replication measured after 72 hrs by Firefly luciferase reporter gene assay; type: functional, organism-based, Hepacivirus hominis; conditions: genotype 1a H77S.3, Huh-7, 72 h
Structure (SMILES),selectivity ratio [1],CC50 at 72 h [2] [nM],EC50 (Hepatitis C virus [3]) [nM],half-life at 10 mg/ml [6] [min],also measured
COC(=O)N[C@@H](C(=O)N1CCC[C@H]1C(=O)Nc1cccc(C#Cc2cccc(NC(=O)[C@@H]3CCCN3C(=O)[C@H](NC(=O)OC)C(C)C)c2)c1)C(C)C,> 891,> 1000,1.12,–,–
COC(=O)N[C@@H](C(=O)N1CCC[C@H]1C(=O)Nc1cccc(C#Cc2ccc(-c3cnc([C@@H]4CCCN4C(=O)[C@H](NC(=O)OC)c4ccccc4)[nH]3)cc2)c1)c1ccccc1,–,26200,0.00114,> 120,microsomal CLint [4]: < 5.8 µL/min/mg; EC50 (Hepatitis C virus [5]): 0.134 nM; EC50 (Hepatitis C virus [7]): 0.229 nM; EC50 (Hepatitis C virus [8]): 0.0504 nM
"COC(=O)N[C@@H](C(=O)N1CCCC1C(=O)Nc1cccc(C#Cc2cccc(-c3cnc([C@@H]4CCCN4C(=O)[C@H](NC(=O)OC)c4ccccc4)[nH]3)c2)c1)c1ccccc1 (single isomer, unassigned)",> 11000,> 1000,0.0906,73.6,microsomal CLint [4]: 9.4 µL/min/mg
COC(=O)N[C@@H](C(=O)N1CCC[C@H]1C(=O)Nc1cccc(C#Cc2cccc(NC(=O)[C@@H]3CCCN3C(=O)[C@H](NC(=O)OC)c3ccccc3)c2)c1)c1ccccc1,–,43200,0.00123,20,Activity (Hepatitis C virus [9]): Active; microsomal CLint [4]: 35.6 µL/min/mg; EC50 (Hepatitis C virus [10]): 0.00266 nM; Ratio EC50 [11]: 64.4; EC50 (Hepatitis C virus [5]): 0.123 nM; EC50 (Hepatitis C virus [12]): 0.171 nM; EC50 (Hepatitis C virus [7]): 0.0559 nM; EC50 (Hepatitis C virus [13]): 0.00157 nM; EC50 (Hepatitis C virus [14]): 0.0259 nM; EC50 (Hepatitis C virus [8]): 0.0163 nM
CCOC(=O)N[C@@H](CC(C)C)C(=O)N1CCC[C@H]1C(=O)Nc1cccc(C#Cc2cccc(NC(=O)[C@@H]3CCCN3C(=O)[C@H](CC(C)C)NC(=O)OCC)c2)c1,968,24200,25,–,–
COC(=O)N[C@@H](CC(C)C)C(=O)N1CCC[C@H]1C(=O)Nc1cccc(C#Cc2cccc(NC(=O)[C@@H]3CCCN3C(=O)[C@H](CC(C)C)NC(=O)OC)c2)c1,407000,54400,0.133,–,–
COC(=O)N[C@H](C(=O)N1CCC[C@H]1C(=O)Nc1cccc(C#Cc2cccc(NC(=O)[C@@H]3CCCN3C(=O)[C@@H](NC(=O)OC)c3ccccc3)c2)c1)c1ccccc1,5.56e+06,24200,0.0044,75.9,microsomal CLint [4]: 9.9 µL/min/mg
C[C@]12CC[C@H]3[C@@H](CCC4=CC(=O)CC[C@@]43C)[C@@H]1CC[C@@H]2O [TESTOSTERONE],–,–,–,7.4,–
COC(=O)N[C@@H](C(=O)N1CCC[C@H]1C(=O)Nc1ccc(C#Cc2cccc(NC(=O)[C@@H]3CCCN3C(=O)[C@H](NC(=O)OC)c3ccccc3)c2)cc1)c1ccccc1,> 995,> 1000,1,–,–
COC(=O)N[C@H](CCSC)C(=O)N1CCC[C@H]1C(=O)Nc1cccc(C#Cc2cccc(NC(=O)[C@@H]3CCCN3C(=O)[C@@H](CCSC)NC(=O)OC)c2)c1,> 1890,> 1000,0.528,–,–
COC(=O)N[C@H](C(=O)N1CCC[C@H]1C(=O)Nc1cccc(C#Cc2cccc(NC(=O)[C@@H]3CCCN3C(=O)[C@@H](NC(=O)OC)C(C)C)c2)c1)C(C)C,> 3.25e+06,> 100000,0.0308,–,EC50 (Hepatitis C virus [5]): 233 nM; EC50 (Hepatitis C virus [7]): 2150 nM; EC50 (Hepatitis C virus [8]): 279 nM
COC(=O)N[C@H](C(=O)N1CCC[C@H]1c1ncc(-c2ccc(-c3ccc(-c4cnc([C@@H]5CCCN5C(=O)[C@@H](NC(=O)OC)C(C)C)[nH]4)cc3)cc2)[nH]1)C(C)C [DACLATASVIR],–,–,–,–,EC50 (Hepatitis C virus [10]): 0.0257 nM; Ratio EC50 [11]: 132; EC50 (Hepatitis C virus [5]): 0.0578 nM; EC50 (Hepatitis C virus [12]): 3.39 nM; EC50 (Hepatitis C virus [7]): 8.35 nM; EC50 (Hepatitis C virus [14]): 0.136 nM; EC50 (Hepatitis C virus [8]): 0.0212 nM
CCOC(=O)N[C@H](C(=O)N1CCC[C@H]1C(=O)Nc1cccc(C#Cc2cccc(NC(=O)[C@@H]3CCCN3C(=O)[C@@H](NC(=O)OCC)C(C)C)c2)c1)C(C)C,> 8230,> 100000,12.2,–,–
COC(=O)N[C@@H](CCSC)C(=O)N1CCC[C@H]1C(=O)Nc1cccc(C#Cc2cccc(NC(=O)[C@@H]3CCCN3C(=O)[C@H](CCSC)NC(=O)OC)c2)c1,> 7350,> 1000,0.136,–,–
CCCCOC(=O)N[C@@H](CC(C)C)C(=O)N1CCC[C@H]1C(=O)Nc1cccc(C#Cc2cccc(NC(=O)[C@@H]3CCCN3C(=O)[C@H](CC(C)C)NC(=O)OCCCC)c2)c1,–,> 1000,> 1000,–,–
COC(=O)N[C@H](C(=O)N1CCC[C@H]1C(=O)Nc1ccc(C#Cc2ccc(NC(=O)[C@@H]3CCCN3C(=O)[C@@H](NC(=O)OC)C(C)C)cc2)cc1)C(C)C,> 7660,> 1000,0.131,–,EC50 (Hepatitis C virus [5]): 60.1 nM; EC50 (Hepatitis C virus [7]): 405 nM; EC50 (Hepatitis C virus [8]): 446 nM
COC(=O)N[C@H](C(=O)N1CCC[C@H]1C(=O)Nc1ccc(C#Cc2cccc(NC(=O)[C@@H]3CCCN3C(=O)[C@@H](NC(=O)OC)C(C)C)c2)cc1)C(C)C,231000,41200,0.179,–,–
CCCCOC(=O)N[C@H](C(=O)N1CCC[C@H]1C(=O)Nc1cccc(C#Cc2cccc(NC(=O)[C@@H]3CCCN3C(=O)[C@@H](NC(=O)OCCCC)C(C)C)c2)c1)C(C)C,> 173,> 100000,577,–,–
COC(=O)N[C@@H](C(=O)N1CCC[C@H]1C(=O)Nc1ccc(C#Cc2ccc(NC(=O)[C@@H]3CCCN3C(=O)[C@H](NC(=O)OC)c3ccccc3)cc2)cc1)c1ccccc1,–,28200,0.00259,> 120,microsomal CLint [4]: < 5.8 µL/min/mg; EC50 (Hepatitis C virus [5]): 0.147 nM; EC50 (Hepatitis C virus [7]): 0.316 nM; EC50 (Hepatitis C virus [8]): 0.194 nM
COC(=O)N[C@H](CC(C)C)C(=O)N1CCC[C@H]1C(=O)Nc1cccc(C#Cc2cccc(NC(=O)[C@@H]3CCCN3C(=O)[C@@H](CC(C)C)NC(=O)OC)c2)c1,560000,97800,0.175,–,–
COC(=O)N[C@H](C(=O)N1CCC[C@H]1C(=O)Nc1cccc(C#Cc2cccc(NC(=O)[C@@H]3CCCN3C(=O)[C@H](NC(=O)OC)c3ccccc3)c2)c1)C(C)C,–,33600,0.0033,18.8,microsomal CLint [4]: 36.4 µL/min/mg
CC(C)[C@H](NC(=O)OCc1ccccc1)C(=O)N1CCC[C@H]1C(=O)Nc1cccc(C#Cc2cccc(NC(=O)[C@@H]3CCCN3C(=O)[C@@H](NC(=O)OCc3ccccc3)C(C)C)c2)c1,–,> 1000,999,–,–
CCSC[C@@H](NC(=O)OC)C(=O)N1CCC[C@H]1C(=O)Nc1cccc(C#Cc2cccc(NC(=O)[C@@H]3CCCN3C(=O)[C@@H](CSCC)NC(=O)OC)c2)c1,13000,11200,0.86,–,–
